From US10696671B2, “Imidazo[1,2-A]pyridine derivatives, methods for preparing the same and use thereof” (Jeil Pharmaceutical Co., Ltd., priority 2016, dated 2020)

Assays:
[1] = tested on: esophageal injury in reflux esophagitis models; test: Inhibitory effects against esophageal injury in reflux esophagitis models; assay type: in vivo, Sprague Dawley (SD) rats; settings: Rattus norvegicus; percent inhibition of esophageal injury area vs control; rats, 2 mg/kg oral 1 hour before ligation, measured 6 hours after ligation; read-out: GERD (rat/mpk)
Experimental: Test Example 3: Inhibitory Effects against Esophageal Injury in Reflux Esophagitis Models The inhibitory effects of the compounds of the present disclosure against esophageal injury in reflux esophagitis models were evaluated according to the method of Nakamura [Nakamura K, et al., Effects of sodium polyacrylate (PANa) on acute esophagitis by gastric juice in rats, Jpn J Pharmacology, 1982, 32, 445-56]. Male Sprague Dawley (SD) rats (weighing 180-210 g) were divided into X groups (n=6) and fasted without water for 24 hours. Then, the control group was administered orally with only 10% DMSO, 10% Cremophor EL and 80% water, and the other groups were administered orally with 2 mg/kg/2 ml of each test compound together with 10% DMSO, 10% Cremophor EL and 80% water. At 1 hour after administration of the excipients and each compound, the abdominal cavity of each rate was incised under isoflurane anesthesia, and the pylorus was ligated, and the boundary between the anterior portion and the body was also ligated. At 6 hours after ligation, the test animals were euthanized, and the esophagus ranging from the thyroid to the cardiac portion was carefully extracted. The extracted esophagus was incised in a longitudinal direction and spread so as to expose the mucosa and was then fixed, after which the area of esophageal injury was measured. Percent (%) inhibitory activity of test compounds={(total esophageal injury area of control group−esophageal injury area of group treated with test compound)/total esophageal injury area of control group}×100.

[2] = molecular target: T1, proton pump (H+/K+-ATPase), porcine gastric vesicles (Sus scrofa, UniProt P19156); test: Inhibitory effects against proton pump (H+/K+-ATPase) activity, malachite green phosphate assay; assay type: biochemical; settings: pH 6.4, 37° C., K+-dependent activity
T1 construct: reaction buffer (50 mmol/L Tris-Hepes buffer, pH 6.4) containing porcine gastric vesicles; from tissue; host or cells: porcine gastric mucosa (gastric vesicles prepared by centrifugation)
Experimental: Test Example 1: Preparation of Gastric Vesicles
Gastric vesicles used in the experiment were prepared by separation from porcine gastric mucosa according to a centrifugation method [Saccomani G, et al., A Nonelectrogenic H^+ Pump in Plasma Membranes of Hog Stomach, J Biol Chem., 1976, 251 (23), 7690-8]. Next, the protein content of the gastric vesicles was quantified using a bicinchoninic acid kit [Smith P K, et al., Measurement of protein using bicinchoninic acid, Anal Biochem., 1985, 150 (1), 76-85)].
Test Example 2: Measurement of Inhibitory Effects Against Proton Pump (H^+/K^+-ATPase) Activity
The inhibitory effects of the compounds against proton pump activity were calculated based on the pump activity determined in the presence of K^+ ions excluding the pump activity determined in the absence of K^+ ions. The inhibitory effects against proton pump activity were measured in 96-well plates, and all reactions were performed with a reaction volume of […] at 37° C. Specifically, 10 μm of valinomycin and each concentration of each compound were pre-incubated in a reaction buffer (50 mmol/L Tris-Hepes buffer, pH 6.4) containing porcine gastric vesicles for 15 minutes. For negative and positive control groups, 1% DMSO was added to buffer, and for test groups, 1% DMSO and a dilution of each concentration of each compound were added. Next, 0.2 mmol/L of adenosine triphosphate (ATP) was added to the reaction buffer and incubated at 37° C. for 40 minutes. After completion of the incubation, a malachite green solution was added to the reaction buffer and incubated for 30 minutes, and the amount of inorganic phosphate in the reaction buffer was measured by colorimetry using a malachite green phosphate assay Kit (Bioassay Systems). For colorimetry, the OD (optical density) at 620 nm was measured using a microplate reader [Synergy H4, hybrid multimode microplate reader, BioTek]. The percent inhibition of proton pump (H^+/K^+-ATPase) was determined based on the OD value of the control group and the OD values of various concentrations of the test compounds, and the IC50 of each test compound was calculated using the Logistic 4-parameter function of Sigmaplot 8.0 program.

[3] = tested on: histamine-stimulated gastric acid secretion; test: Inhibitory effects against histamine-stimulated gastric acid secretion in pylorus-ligated rats (Shay's rat models); assay type: in vivo, Sprague-Dawley (SD) rats; settings: percent inhibition of total acid output vs control, 2 mg/kg oral 1 hour before pylorus ligation, histamine 30 mg/kg s.c., 3 hours after ligation
Experimental: Test Example 4: Inhibitory Effects against Histamine-Stimulated Gastric Acid Secretion in Pylorus-Ligated Rats The inhibitory effects of the compounds of the present disclosure against histamine-stimulated gastric acid secretion were evaluated using Shay's rat models [Shay H, et al. A simple method for the uniform production of gastric ulceration in the rat, Gastroenterology, 1945, 5, 43-61]. Male Sprague-Dawley (SD) rats (weighing 180-210 g) were divided into X groups (n=7) and fasted with only water access for 24 hours. At 1 hour before pylorus ligation, the control group was administered orally with only 10% DMSO, 10% Cremophor EL and 80% water, and the other groups were administered orally with 2 mg/kg/2 ml of each compound together with 10% DMSO, 10% Cremophor EL and 80% water. The abdominal cavity of each rate was incised under isoflurane anesthesia, and the pylorus was ligated. Immediately after ligation, histamine 2HCl was administered subcutaneously to each rat at a dose of 30 mg/kg/10 ml. At 3 hours after ligation, the test animals were euthanized, and the gastric content was extracted. The extracted gastric content was centrifuged at 3,000×g for 10 minutes, and the supernatant was collected to obtain gastric juice. Next, the acidity of the gastric juice was determined based on the volume of (ueq/ml) of 0.1 N—NaOH required for automatic titration of the gastric juice to pH 7.0, and the acidity of the gastric juice was multiplied by the amount of the gastric juice to determine total acid output. Percent (%) inhibitory activity of test compounds={(total acid output in control group−total acid output in group treated with test compound)/total acid output in control group}×100.

T1 sequence (P19156 2-1034 limits assumed): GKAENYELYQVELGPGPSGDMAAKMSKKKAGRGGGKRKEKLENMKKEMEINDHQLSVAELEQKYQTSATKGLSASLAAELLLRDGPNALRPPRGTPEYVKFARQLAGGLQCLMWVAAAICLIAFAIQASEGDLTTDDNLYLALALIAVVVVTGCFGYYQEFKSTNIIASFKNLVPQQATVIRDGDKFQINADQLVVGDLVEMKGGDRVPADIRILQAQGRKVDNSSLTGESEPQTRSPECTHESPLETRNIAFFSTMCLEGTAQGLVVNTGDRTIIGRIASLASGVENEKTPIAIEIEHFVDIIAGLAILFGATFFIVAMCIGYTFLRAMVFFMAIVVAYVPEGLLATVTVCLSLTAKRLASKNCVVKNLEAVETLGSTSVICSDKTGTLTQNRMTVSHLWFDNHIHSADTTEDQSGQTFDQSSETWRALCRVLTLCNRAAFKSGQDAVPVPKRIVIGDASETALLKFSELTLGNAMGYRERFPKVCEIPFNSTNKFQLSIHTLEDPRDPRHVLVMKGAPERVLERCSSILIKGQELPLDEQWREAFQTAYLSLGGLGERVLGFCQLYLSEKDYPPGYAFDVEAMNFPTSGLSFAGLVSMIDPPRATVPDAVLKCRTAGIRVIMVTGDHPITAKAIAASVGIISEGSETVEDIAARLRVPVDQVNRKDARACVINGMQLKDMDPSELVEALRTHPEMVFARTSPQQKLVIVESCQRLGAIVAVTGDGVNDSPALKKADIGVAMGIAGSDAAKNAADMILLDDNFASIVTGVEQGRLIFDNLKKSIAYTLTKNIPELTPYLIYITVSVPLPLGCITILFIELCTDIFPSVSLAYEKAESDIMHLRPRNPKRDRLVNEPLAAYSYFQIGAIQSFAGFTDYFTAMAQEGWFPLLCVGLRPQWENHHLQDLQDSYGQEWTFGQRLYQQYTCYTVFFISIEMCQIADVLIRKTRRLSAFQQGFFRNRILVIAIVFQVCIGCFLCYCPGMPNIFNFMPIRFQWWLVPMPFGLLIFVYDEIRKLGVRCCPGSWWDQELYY
T1 sequence (P18434 whole entry partner): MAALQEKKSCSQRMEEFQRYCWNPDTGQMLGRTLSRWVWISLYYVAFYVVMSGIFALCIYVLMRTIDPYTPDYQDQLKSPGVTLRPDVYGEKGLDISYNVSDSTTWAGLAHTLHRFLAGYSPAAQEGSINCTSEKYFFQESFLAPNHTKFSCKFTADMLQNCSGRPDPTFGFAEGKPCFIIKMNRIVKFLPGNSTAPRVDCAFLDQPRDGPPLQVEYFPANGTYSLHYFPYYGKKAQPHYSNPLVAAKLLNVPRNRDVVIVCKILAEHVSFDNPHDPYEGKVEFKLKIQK

Row | Compound | inhibition in vivo at 2 mg/kg [1] | IC50 [2] | acid output (rat/2 mpk) [3]
1 | Cc1cccc(C)c1CNc1cc(C(=O)N2CC(O)C2)cn2c(C)c(C)nc12 [Example 1, {8-[(2,6-Dimethylbenzyl)amino]-2,3-dimethylimidazo[1,2-α]pyridin-6-yl}(3-hydroxyazetidin-1-yl)methanone] | 84% | 20 nM | 71%
2 | Cc1cccc(C)c1CNc1cc(C(=O)N2CCC2)cn2c(C)c(C)nc12 [Example 6, azetidin-1-yl{8-[(2,6-dimethylbenzyl)amino]-2,3-dimethylimidazo[1,2-α]pyridin-6-yl}methanone] | 100% | 17 nM | 94%
3 | Cc1cccc(C)c1CNc1cc(C(=O)N2CC(F)C2)cn2c(C)c(C)nc12 [Example 7, {8-[(2,6-dimethylbenzyl)amino]-2,3-dimethylimidazo[1,2-a]pyridin-6-yl}(3-fluoroazetidin-1-yl)methanone] | 100% | 55 nM | 91%
4 | Cc1cccc(C)c1CNc1cc(C(=O)N2CC(C)C2)cn2c(C)c(C)nc12 [Example 8, {8-[(2,6-dimethylbenzyl)amino]-2,3-dimethylimidazo[1,2-α]pyridin-6-yl}(3-methylazetidin-1-yl)methanone] | 95.4% | 96 nM | –
5 | Cc1cccc(C)c1CNc1cc(C(=O)N2CC(C)(O)C2)cn2c(C)c(C)nc12 [Example 9, {8-[(2,6-dimethylbenzyl)amino]-2,3-dimethylimidazo[1,2-α]pyridin-6-yl}(3-hydroxy-3-methylazetidin-1-yl)methanone] | 77.2% | 69 nM | –
6 | Cc1cccc(C)c1CNc1cc(C(=O)N2CC(CO)C2)cn2c(C)c(C)nc12 [Example 11, {8-[(2,6-dimethylbenzyl)amino]-2,3-dimethylimidazo[1,2-α]pyridin-6-yl}[3-(hydroxymethyl)azetidin-1-yl]methanone] | 97.6% | 39 nM | 78%
7 | Cc1cc(F)ccc1CNc1cc(C(=O)N2CC(CO)C2)cn2c(C)c(C)nc12 [Example 33, {8-[(4-fluoro-2-methylbenzyl)amino]-2,3-dimethylimidazo[1,2-α]pyridin-6-yl}(3-(hydroxymethyl)azetidin-1-yl)methanone] | 92.7% | 143 nM | –
8 | Cc1cc(F)cc(C)c1CNc1cc(C(=O)N2CC(O)C2)cn2c(C)c(C)nc12 [Example 34, {8-[(4-fluoro-2,6-dimethylbenzyl)amino]-2,3-dimethylimidazo[1,2-α]pyridin-6-yl}(3-hydroxyazetidin-1-yl)methanone] | 91.4% | 28 nM | –
9 | Cc1cc(F)cc(C)c1CNc1cc(C(=O)N2CC(F)C2)cn2c(C)c(C)nc12 [Example 36, {8-[(4-fluoro-2,6-dimethylbenzyl)amino]-2,3-dimethylimidazo[1,2-α]pyridin-6-yl}(3-fluoroazetidin-1-yl)methanone] | 98.2% | 29 nM | –
10 | Cc1cc(F)cc(C)c1CNc1cc(C(=O)N2CC(CO)C2)cn2c(C)c(C)nc12 [Example 39, {8-[(4-fluoro-2,6-dimethylbenzyl)amino]-2,3-dimethylimidazo[1,2-α]pyridin-6-yl}[3-(hydroxymethyl)azetidin-1-yl]methanone] | 98.4% | 24 nM | –
11 | Cc1ccc(F)c(C)c1CNc1cc(C(=O)N2CC(CO)C2)cn2c(C)c(C)nc12 [Example 44, {8-[(3-fluoro-2,6-dimethylbenzyl)amino]-2,3-dimethylimidazo[1,2-α]pyridin-6-yl}[3-(hydroxymethyl)azetidin-1-yl]methanone] | – | 61 nM | –
12 | Cc1ccc(Cl)c(C)c1CNc1cc(C(=O)N2CCC2)cn2c(C)c(C)nc12 [Example 45, azetidin-1-yl{8-[(3-chloro-2,6-dimethylbenzyl)amino]-2,3-dimethylimidazo[1,2-α]pyridin-6-yl}methanone] | – | 81 nM | –
13 | Cc1ccc(Cl)c(C)c1CNc1cc(C(=O)N2CC(O)C2)cn2c(C)c(C)nc12 [Example 46] | – | 163 nM | –
14 | Cc1ccc(Cl)c(C)c1CNc1cc(C(=O)N2CC(F)C2)cn2c(C)c(C)nc12 [Example 47, {8-[(3-chloro-2,6-dimethylbenzyl)amino]-2,3-dimethylimidazo[1,2-α]pyridin-6-yl}(3-fluoroazetidin-1-yl)methanone] | – | 624 nM | –
15 | Cc1ccc(Cl)c(C)c1CNc1cc(C(=O)N2CC(CO)C2)cn2c(C)c(C)nc12 [Example 48, {8-[(3-chloro-2,6-dimethylbenzyl)amino]-2,3-dimethylimidazo[1,2-α]pyridin-6-yl}[3-(hydroxymethyl)azetidin-1-yl]methanone] | – | 102 nM | –
